We go through 18 molecules from patent publication US6191155A (priority 1997, dated 2001).

The first data set concerns Erysiphe graminis f.sp. hordei. Put plainly: Erysiphe test (barley)/protective. The settings on record: active compound concentration 250 (head: % by weight); protective; 7 days after inoculation; 100% = no infection. The data set is classed as in vivo, Erysiphe graminis f.sp. hordei (on barley). The protocol:
Erysiphe Test (Barley)/Protective
(§1) Solvent: 10 parts by weight of N-methyl-pyrrolidone
(§2) Emulsifier: 0.6 parts by weight of alkylaryl polyglycol ether
(§3) To produce a suitable preparation of active compound, 1 part by weight of active compound is mixed with the stated amounts of solvent and emulsifier, and the concentrate is diluted with water to the desired concentration.
To test for protective activity, young plants are sprayed with the preparation of active compound at the stated application rate.
After the spray coating has dried on, the plants are dusted with spores of Erysiphe graminis f.sp. hordei.
The plants are placed in a greenhouse at a temperature of approximately 20° C. and a relative atmospheric humidity of approximately 80% to promote the development of mildew pustules.
Evaluation is carried out 7 days after the inoculation. 0% means an efficacy which corresponds to that of the control, while an efficacy of 100% means that no infection is observed.
On to `O=C(OCCOCCN1CCCC1)c1snc(Cl)c1Cl` [Example 3], for which the Efficacy in % stood at 100%.

System in the next data set: not listed separately
Put plainly: log P by HPLC (EEC Directive 79/831 Annex V.A8). The settings on record: gradient method, acetonitrile/0.1% of aqueous phosphoric acid. The data set is classed as physicochemical. On the procedure:
*) The log P values were determined in accordance with EEC Directive 79/831
Annex V.A8 by HPLC (gradient method, acetonitrile/0.1% of aqueous
The term chromatographic logP denotes lipophilicity estimated from chromatographic retention. `CCN(CC)CCOC(=O)c1snc(Cl)c1Cl` [Example 2] displayed a chromatographic logP of 1.37.
Turning to `O=C(OCCOCCN1CCCC1)c1snc(Cl)c1Cl` [Example 3], the chromatographic logP came to 1.36.
The same measure, in the same setting: for `O=C(OCCOc1cccc(C(F)(F)F)c1)c1snc(Cl)c1Cl` [Example 4] the value was 4.71; for `O=C(OCCOCc1ccccc1)c1snc(Cl)c1Cl` [Example 5], 4.12; for `COC(=O)c1ccc(OCCOC(=O)c2snc(Cl)c2Cl)cc1` [Example 6], 3.91.
In turn, `CCN(CCOCCOC(=O)c1snc(Cl)c1Cl)c1ccccc1` [Example 7] gave a chromatographic logP of 2.6.
On the same count and under the same terms, for `O=C(OCCOCC(F)(F)F)c1snc(Cl)c1Cl` [Example 8] the value was 3.55; for `O=C(OCCOC(CF)CF)c1snc(Cl)c1Cl` [Example 9], 3.11.
`O=C(OCCOc1ccc(Cl)cc1)c1snc(Cl)c1Cl` [Example 10]: the chromatographic logP amounted to 4.58.
Still for that read-out and setting: the result for `O=C(OCCn1nnc2ccccc21)c1snc(Cl)c1Cl` [Example 11] reads 2.81; that for `CSC(=O)c1snc(Cl)c1Cl` [Example 15], 3.46.
Still for that read-out and setting: the result for `CC(C)CSC(=O)c1snc(Cl)c1Cl` [Example 17] reads 5.16.
`CCCSC(=O)c1snc(Cl)c1Cl` [Example 18] showed a chromatographic logP of 4.66.
Still for that read-out and setting: the result for `Cc1ccc(C(C)OC(=O)c2snc(Cl)c2Cl)cc1` (centres unmarked) [Example 19] reads 5.02; that for `O=C(OCC(O)CO)c1snc(Cl)c1Cl` (centres unmarked) [Example 20], 1.49.

A further data set deals with Leptosphaeria nodorum. Put plainly: Leptosphaeria nodorum test (wheat)/protective. Type of data set: in vivo, Leptosphaeria nodorum (on wheat). The settings on record: application rate 250 g/ha; protective; evaluation 10 days after inoculation. On the procedure: Leptosphaeria nodorum Test (Wheat)/Protective
as §1, §2, §3
To test for protective activity, young plants are sprayed with the preparation of active compound at the stated application rate. After the spray coating has dried on, the plants are sprayed with a spore suspension of Leptosphaeria nodorum. The plants remain in an incubation cabin at 20° C. and 100% relative atmospheric humidity for 48 hours.
The plants are placed in a greenhouse at a temperature or approximately 15° C. and a relative atmospheric humidity of 80%.
Evaluation is carried out 10 days after the inoculation. 0% means an efficacy which corresponds to that of the control, while an efficacy of 100% means that no infection is observed.
Regarding `O=C(OCCc1ccc(Cl)cc1)c1snc(Cl)c1Cl` [Example 13], the Efficacy in % came to 81%.

The subject of another data set is fungi.
Assay: not given
The settings on record: cited from earlier work.
With `CC(C)OC(=O)c1snc(Cl)c1Cl` [isopropyl 3,4-dichloro-isothiazol-5-carboxylate], the “activity in controlling fungi” value is recorded as “good”.

A further data set concerns Plutella xylostella. Put plainly: Plutella test (caterpillars of the diamond-back moth on cabbage leaves). Type of data set: in vivo, Plutella xylostella (on Brassica oleracea). The settings on record: 168 h, active compound concentration 0.1 % by weight, after 7 days, read-out: Kill in % after 7d. On the procedure:
Solvent: 7 parts by weight of dimethylformamide
Emulsifier: 1 part by weight of alkylaryl polyglycol ether
as §3
Cabbage leaves (Brassica oleracea) are treated by being dipped into the preparation of active compound of the desired concentration and are populated with caterpillars of the diamond-back moth (Plutella xylostella) while the leaves are still moist.
After 7 days, the kill is determined. An efficacy of 100% means that all caterpillars have been killed, while an efficacy of 0% means that none of the caterpillars have been killed.
As to `O=C(OCCOCCN1CCCC1)c1snc(Cl)c1Cl` [Example 3], the mortality at 0.1 % strength worked out at 100%.
The same measure, in the same setting: the result for `O=C(OCc1cccnc1)c1snc(Cl)c1Cl` [Example 12] reads 100%.
